Results as given in US8609610B2, “Inhibitors of the trypsin-like site of the proteasome and methods of use thereof” (Trustees of Dartmouth College, priority 2011, dated 2013).

Tests used:
Type in all cases: cell-based
[1] = target: T1, chymotrypsin-like sites (β5) of proteasome in MM cells (Homo sapiens, UniProt P28074); experiment: PROTEASOMEGLO assay of proteasome inhibition in MM cells
T1 sequence (P28074 60-263): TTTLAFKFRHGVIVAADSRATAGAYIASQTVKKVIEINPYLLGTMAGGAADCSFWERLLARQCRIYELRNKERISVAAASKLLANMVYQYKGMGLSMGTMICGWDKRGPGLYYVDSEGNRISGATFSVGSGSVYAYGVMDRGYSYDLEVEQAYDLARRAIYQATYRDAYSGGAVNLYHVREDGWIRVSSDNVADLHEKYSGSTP
Protocol: (§1) Proteasome inhibition in MM cells was measured with luminogenic substrates using PROTEASOMEGLO assay (Promega). […] An aliquot of culture was pelleted and medium was removed and replaced with PBS. The resulting cell suspension was mixed with luminogenic substrates in the manufacturer-provided lysis/assay buffer. After 3 minutes mixing on an orbital shaker, the plate was incubated in the dark for additional 17 minutes, followed by the measurements of the luminescence, performed in triplicate for each substrate/data point. Data were analyzed as for purified proteasomes. […] Cells (1×10^6 per well of a 6-well plate) were incubated with the inhibitors for 4 hours at 37° C. and this was followed by a 2 hour incubation with 5 μM BODIPY-TMR-epoxomicin. Subsequently, the medium was removed and the cells were washed with PBS and harvested. […] The supernatant was collected and the protein concentration was determined by the Bradford assay, and used to normalize gel loading. The samples were analysed by SDS-PAGE and fluorescent densitometry as described for competition experiment in cell lysates. IC50 values were calculated from three independent experiments using […] PRISM software.

[2] = target: T2, trypsin-like sites (β2) of proteasome in MM cells (Homo sapiens, UniProt Q99436); experiment: as above
T2 construct: endogenous in cells; host or cells: NCI-H929, RPMI-8226 and other MM cell lines
T2 sequence (Q99436 44-277): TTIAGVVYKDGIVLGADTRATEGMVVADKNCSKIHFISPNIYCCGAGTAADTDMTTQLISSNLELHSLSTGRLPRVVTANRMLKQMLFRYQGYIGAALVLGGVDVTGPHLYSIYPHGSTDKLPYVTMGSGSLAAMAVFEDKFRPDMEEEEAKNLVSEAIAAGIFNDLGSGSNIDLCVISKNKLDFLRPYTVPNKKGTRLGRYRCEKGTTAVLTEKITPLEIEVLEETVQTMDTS
Protocol: as §1

[3] = target: T3, caspase-like sites (β1) of proteasome in MM cells (Homo sapiens, UniProt P28072+Q99436); experiment: as above
T3 sequence (P28072 35-239): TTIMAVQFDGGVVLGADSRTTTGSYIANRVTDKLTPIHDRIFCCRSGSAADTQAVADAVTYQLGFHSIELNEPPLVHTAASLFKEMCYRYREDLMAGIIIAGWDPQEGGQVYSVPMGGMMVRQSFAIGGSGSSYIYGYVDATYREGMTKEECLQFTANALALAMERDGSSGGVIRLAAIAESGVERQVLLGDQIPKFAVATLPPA
T3 sequence (Q99436 44-277): T2 sequence (Q99436 44-277)

RPMI-8226 cells = experiment: ALAMAR BLUE cell viability assay; conditions: RPMI-8226, then 48 h
Protocol: (§2) RPMI-8226 and NCI-H929 cells were cultured in RPMI-1640 supplemented with 10% fetal bovine serum, penicillin, streptomycin, and plasmocin in 5% CO2 humidified incubator. HEK-293T cells were cultured in DMEM containing 10% fetal calf serum, 10 units/mL penicillin, and 10 μg/mL streptomycin in a 7% CO2 humidified incubator. Viability of multiple myeloma cells was measured with ALAMAR BLUE mitochondrial dye conversion assay. Viability of peripheral blood mononuclear cells (PBMNCs) was measured using CELL TITER-GLO luminescent cell viability assay (Promega), which is based on quantification of ATP present in the cells. Caspase-3/7 activity was measured using APO-ONE 3/7 homogeneous assay (Promega).

NCI-H929 cells = experiment: ALAMAR BLUE cell viability assay; conditions: NCI-H929, then 48 h
Protocol: as §2

KMS-18 cells = experiment: ALAMAR BLUE cell viability assay; conditions: then 48 h
Protocol: as §2

MM1.R cells = experiment: ALAMAR BLUE cell viability assay; conditions: LU-005 0.004 μM 1 h, then 48 h
Protocol: as §2

KMS-12-BM cells = experiment: ALAMAR BLUE cell viability assay; conditions: then 48 h
Protocol: as §2

## CC(C)C[C@H](NC(=O)[C@H](Cc1c(F)c(F)c(F)c(F)c1F)NC(=O)[C@H](Cc1ccccc1)NC(=O)[C@H](Cc1ccccc1)N=[N+]=[N-])C(=O)[C@@]1(C)CO1 [LU-005]
[1]; KMS-12-BM, LU-005 0.037 μM 1 h
  Inhibition of active sites β5: 48 ± 9 % control
[1]; KMS-12-BM, LU-005 0.33 μM 1 h
  Inhibition of active sites β5: 81 ± 3 % control
[1]; KMS-12-BM, LU-005 1.0 μM 1 h
  Inhibition of active sites β5: 95 ± 2 % control
[1]; KMS-18, LU-005 0.037 μM 1 h
  Inhibition of active sites β5: 14 % control
[1]; KMS-18, LU-005 0.33 μM 1 h
  Inhibition of active sites β5: 69 ± 8 % control
[1]; KMS-18, LU-005 1.0 μM 1 h
  Inhibition of active sites β5: 85 ± 6 % control
[1]; KMS-18, LU-005 3.0 μM 1 h
  Inhibition of active sites β5: 94 ± 4 % control
[1]; KMS-18, LU-005 9.0 μM 1 h
  Inhibition of active sites β5: 97 ± 1 % control
[1]; MM1.R, LU-005 0.004 μM 1 h
  Inhibition of active sites β5: 17 ± 4 % control
[1]; NCI-H929, LU-005 0.0014 μM 1 h
  Inhibition of active sites β5: 22 ± 4 % control
[1]; NCI-H929, LU-005 0.004 μM 1 h
  Inhibition of active sites β5: 22 ± 11 % control
[1]; RPMI-8226, LU-005 0.037 μM 1 h
  Inhibition of active sites β5: 45 ± 26 % control
[1]; RPMI-8226, LU-005 0.33 μM 1 h
  Inhibition of active sites β5: 62 ± 32 % control
[1]; RPMI-8226, LU-005 1.0 μM 1 h
  Inhibition of active sites β5: 82 ± 16 % control
[2]; KMS-12-BM, LU-005 0.037 μM 1 h
  Inhibition of active sites β2: −12 ± 1 % control
[2]; KMS-12-BM, LU-005 0.33 μM 1 h
  Inhibition of active sites β2: 3 ± 18 % control
[2]; KMS-12-BM, LU-005 1.0 μM 1 h
  Inhibition of active sites β2: 29 ± 7 % control
[2]; KMS-18, LU-005 0.037 μM 1 h
  Inhibition of active sites β2: −13 ± 13 % control
[2]; KMS-18, LU-005 0.33 μM 1 h
  Inhibition of active sites β2: 24 ± 6 % control
[2]; KMS-18, LU-005 1.0 μM 1 h
  Inhibition of active sites β2: 38 ± 5 % control
[2]; KMS-18, LU-005 3.0 μM 1 h
  Inhibition of active sites β2: 50 ± 14 % control
[2]; KMS-18, LU-005 9.0 μM 1 h
  Inhibition of active sites β2: 62 ± 5 % control
[2]; MM1.R, LU-005 0.004 μM 1 h
  Inhibition of active sites β2: 6.5 ± 0.5 % control
[2]; NCI-H929, LU-005 0.0014 μM 1 h
  Inhibition of active sites β2: −9 ± 2 % control
[2]; NCI-H929, LU-005 0.004 μM 1 h
  Inhibition of active sites β2: −13 ± 7 % control
[2]; RPMI-8226, LU-005 0.037 μM 1 h
  Inhibition of active sites β2: 1 ± 17 % control
[2]; RPMI-8226, LU-005 0.33 μM 1 h
  Inhibition of active sites β2: 13 ± 11 % control
[2]; RPMI-8226, LU-005 1.0 μM 1 h
  Inhibition of active sites β2: 22 ± 19 % control
[3]; KMS-12-BM, LU-005 0.037 μM 1 h
  Inhibition of active sites β1: −1 ± 5 % control
[3]; KMS-12-BM, LU-005 0.33 μM 1 h
  Inhibition of active sites β1: 6 ± 12 % control
[3]; KMS-12-BM, LU-005 1.0 μM 1 h
  Inhibition of active sites β1: 11 ± 16 % control
[3]; KMS-18, LU-005 0.037 μM 1 h
  Inhibition of active sites β1: 0 ± 8 % control
[3]; KMS-18, LU-005 0.33 μM 1 h
  Inhibition of active sites β1: 29 ± 7 % control
[3]; KMS-18, LU-005 1.0 μM 1 h
  Inhibition of active sites β1: 32 ± 4 % control
[3]; KMS-18, LU-005 3.0 μM 1 h
  Inhibition of active sites β1: 39 ± 12 % control
[3]; KMS-18, LU-005 9.0 μM 1 h
  Inhibition of active sites β1: 42 ± 2 % control
[3]; MM1.R, LU-005 0.004 μM 1 h
  Inhibition of active sites β1: 6 ± 8 % control
[3]; NCI-H929, LU-005 0.0014 μM 1 h
  Inhibition of active sites β1: −14 ± 15 % control
[3]; NCI-H929, LU-005 0.004 μM 1 h
  Inhibition of active sites β1: −7 ± 10 % control
[3]; RPMI-8226, LU-005 0.037 μM 1 h
  Inhibition of active sites β1: 16 ± 7 % control
[3]; RPMI-8226, LU-005 0.33 μM 1 h
  Inhibition of active sites β1: 37 ± 15 % control
[3]; RPMI-8226, LU-005 1.0 μM 1 h
  Inhibition of active sites β1: 37 ± 4 % control
RPMI-8226 cells; LU-005 0.037 μM 1 h
  Viability +NC-002 & NC-001: 76 ± 3 % control
  Viability +NC-022: 104 ± 5 % control
  Viability −NC-022: 109 ± 2 % control
RPMI-8226 cells; LU-005 0.33 μM 1 h
  Viability +NC-002 & NC-001: 4.6 ± 0.7 % control
  Viability +NC-022: 31 ± 9 % control
  Viability −NC-022: 94 ± 1 % control
RPMI-8226 cells; LU-005 1.0 μM 1 h
  Viability +NC-002 & NC-001: 1 ± 0 % control
  Viability +NC-022: 6 ± 3 % control
  Viability −NC-022: 10 ± 10 % control
NCI-H929 cells; LU-005 0.0014 μM 1 h
  Viability +NC-002 & NC-001: 50 ± 17 % control
  Viability +NC-022: 77 ± 2 % control
  Viability −NC-022: 97 ± 9 % control
NCI-H929 cells; LU-005 0.004 μM 1 h
  Viability +NC-002 & NC-001: 36 ± 14 % control
  Viability +NC-022: 69 ± 0 % control
  Viability −NC-022: 100 ± 13 % control
KMS-18 cells; LU-005 0.037 μM 1 h
  Viability +NC-002 & NC-001: 79 ± 14 % control
  Viability +NC-022: 104 ± 3 % control
  Viability −NC-022: 108 ± 1 % control
KMS-18 cells; LU-005 0.33 μM 1 h
  Viability +NC-002 & NC-001: 33 ± 20 % control
  Viability +NC-022: 106 ± 16 % control
  Viability −NC-022: 108 ± 0 % control
KMS-18 cells; LU-005 1.0 μM 1 h
  Viability +NC-002 & NC-001: 8 ± 4 % control
  Viability +NC-022: 29 ± 12 % control
  Viability −NC-022: 88 ± 16 % control
KMS-18 cells; LU-005 3.0 μM 1 h
  Viability +NC-002 & NC-001: 1 ± 0.1 % control
  Viability +NC-022: 24 ± 8 % control
  Viability −NC-022: 72 ± 2 % control
KMS-18 cells; LU-005 9.0 μM 1 h
  Viability +NC-002 & NC-001: 0.8 ± 0.2 % control
  Viability +NC-022: 17.5 ± 7.5 % control
  Viability −NC-022: 45 ± 8 % control
MM1.R cells
  Viability +NC-002 & NC-001: 26 ± 6 % control
  Viability +NC-022: 66 ± 1 % control
  Viability −NC-022: 102 ± 4 % control
KMS-12-BM cells; LU-005 0.037 μM 1 h
  Viability +NC-002 & NC-001: 50 ± 2 % control
  Viability +NC-022: 90 ± 5 % control
  Viability −NC-022: 89 ± 8 % control
KMS-12-BM cells; LU-005 0.33 μM 1 h
  Viability +NC-002 & NC-001: 2 ± 0 % control
  Viability +NC-022: 12 ± 2 % control
  Viability −NC-022: 80 ± 9 % control
KMS-12-BM cells; LU-005 1.0 μM 1 h
  Viability +NC-002 & NC-001: 1 ± 0 % control
  Viability +NC-022: 1.5 ± 0.1 % control
  Viability −NC-022: 27 ± 6 % control
